Data on 9 molecules can be found in patent US8378117B2 (priority 2005, dated 2013).

The target of assay [1] is T1, CB1 receptor (Homo sapiens, UniProt P21554).
T1 construct: expressed in transfected cells
The assay can be described thus: cell-based. The conditions noted are these: CB1 Receptor Functional Agonist EC50, SK-N-MC cells, forskolin induced β-galactosidase activity. The gist of the method: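 Read-out is forskolin-driven CRE-β-gal reporter activity in stably transfected human-CB1 SK-N-MC cells, normalised to vehicle (100%); agonism lowers, inverse agonism raises signal. Values are EC50 (linear regression, multiple concentrations) or % change at one concentration.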

Assay [2] concerns the target T1, CB1 receptor. Kind of assay: Binding assay for CB1 agonists or inverse agonists (SK-N-MC membranes, [3H]-CP-55,940). The conditions noted are these: for pIC50: Cannabinoid CB1 Receptor Binding IC50, calculated by linear regression from percent inhibition at various test concentrations; for inhibition at 0.2 µM: read-out: CB1 receptor binding percent inhibition, test concentration 0.2 μM (footnote 2). The essentials:
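Radioligand displacement: [3H]-CP-55,940 at […], 90 min at 30° C, pH 7.5 Tris buffer with 0.5 mg/mL fatty-acid-free BSA, using semi-purified membranes of human-CB1-transfected SK-N-MC cells. Bound counts collected on GF/C filters, 10 uM WIN 55,212 for non-specific; IC50 from percent inhibition over several concentrations.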

Assay [3] concerns the target T2, CB2 receptor (Homo sapiens, UniProt P34972).
T2 construct: expressed in transfected cells
The assay can be described thus: Binding assay for CB2 agonists or inverse agonists (SK-N-MC membranes, [3H]-CP-55,940). The conditions noted are these: for pIC50: Cannabinoid CB2 Receptor Binding IC50, calculated by linear regression from percent inhibition at various test concentrations; for inhibition at 0.2 µM: read-out: CB2 receptor binding percent inhibition, test concentration 0.2 μM (footnote 2). The essentials: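 IC50 came from percent-inhibition data over several compound concentrations, fitted by linear regression. Binding used semi-purified membranes of human CB2-transfected SK-N-MC cells, 90 min at 30 °C, pH 7.5 Tris-HCl with MgCl2, EDTA and BSA, then filtration and scintillation counting.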

The target of assay [4] is T2, CB2 receptor. The assay can be described thus: Functional cell-based assay, CB2 receptor mediated change in CRE β-gal expression (SK-N-MC cells). The conditions noted are these: CB2 Receptor Functional Agonist EC50, forskolin induced β-galactosidase activity, SK-N-MC cells. An excerpt: The CB1 and CB2 receptors are G-protein coupled receptors (GPCR), which influence cell function via the Gi-protein. These receptors modulate the activity of intracellular adenylate cyclase, which in turn produces the intracellular signal messenger cyclic-AMP (cAMP).
At baseline, or during non-ligand bound conditions, these receptors are constitutively active and tonically suppress adenylate cyclase activity. The binding of an agonist causes further receptor activation and produces additional suppression of adenylate cyclase activity. The binding of an inverse agonist inhibits the constitutive activity of the receptors and results in an increase in adenylate cyclase activity.
By monitoring intracellular adenylate cyclase activity, the ability of compounds to act as agonists or inverse agonists can be determined.
Test compounds were evaluated in SK-N-MC cells which, using standard transfection procedures, were stably transfected with human cDNA for pcDNA3-CRE β-gal and pcDNA3 CB1 receptor (human) or pcDNA3 CB2 receptor (human). By expressing CRE β-gal, the cells produced β-galactosidase in response to CRE promoter activation by cAMP. Cells expressing CRE β-gal and either the human CB1 or CB2 receptor will produce less β-galactosidase when treated with a CB1/CB2 agonist and will produce more β-galactosidase when treated with a CB1/CB2 inverse agonist.
The cells were grown in 96-well plates under standard cell culture conditions at 37° C. in a 5% CO2 atmosphere and culture media (wherein the media was supplemented with 2 mM L-glutamine, […] sodium pyruvate, 10% FBS (fetal bovine serum) and antibiotics).
For cells expressing CRE β-gal and the CB2 receptor, CB2 agonists reduced β-galactosidase activity in a dose-dependent manner and CB2 inverse agonists increase β-galactosidase activity in a dose-dependent manner.
The change in forskolin induced β-galactosidase activity was determined by setting a vehicle treated cell's activity value at 100% and expressing the β-galactosidase activity measured in a corresponding compound treated cell as a percent of the vehicle treated cell activity.
The EC50 value for functional activity for compounds tested was calculated by linear regression and was obtained from studies in which varying compound concentrations were used.

In general, pEC50 refers to the negative decadic logarithm of the EC50, by convention in mol/L. A lower pEC50 goes with a high EC50. One may read the pIC50 as the IC50 on a negative log10 scale, so that one unit is a factor of ten.

pEC50, pIC50: −log10 of the molar value.

T2 sequence (P34972 whole entry): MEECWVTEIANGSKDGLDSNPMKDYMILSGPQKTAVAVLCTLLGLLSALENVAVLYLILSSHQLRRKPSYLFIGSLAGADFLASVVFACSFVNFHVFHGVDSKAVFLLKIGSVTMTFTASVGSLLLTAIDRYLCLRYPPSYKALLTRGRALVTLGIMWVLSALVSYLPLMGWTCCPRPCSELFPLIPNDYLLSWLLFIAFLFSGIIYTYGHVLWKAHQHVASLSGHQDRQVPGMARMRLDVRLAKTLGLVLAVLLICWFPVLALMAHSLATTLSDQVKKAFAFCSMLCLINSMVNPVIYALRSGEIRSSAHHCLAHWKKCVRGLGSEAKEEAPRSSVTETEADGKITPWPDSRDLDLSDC
T1 sequence (P21554 whole entry): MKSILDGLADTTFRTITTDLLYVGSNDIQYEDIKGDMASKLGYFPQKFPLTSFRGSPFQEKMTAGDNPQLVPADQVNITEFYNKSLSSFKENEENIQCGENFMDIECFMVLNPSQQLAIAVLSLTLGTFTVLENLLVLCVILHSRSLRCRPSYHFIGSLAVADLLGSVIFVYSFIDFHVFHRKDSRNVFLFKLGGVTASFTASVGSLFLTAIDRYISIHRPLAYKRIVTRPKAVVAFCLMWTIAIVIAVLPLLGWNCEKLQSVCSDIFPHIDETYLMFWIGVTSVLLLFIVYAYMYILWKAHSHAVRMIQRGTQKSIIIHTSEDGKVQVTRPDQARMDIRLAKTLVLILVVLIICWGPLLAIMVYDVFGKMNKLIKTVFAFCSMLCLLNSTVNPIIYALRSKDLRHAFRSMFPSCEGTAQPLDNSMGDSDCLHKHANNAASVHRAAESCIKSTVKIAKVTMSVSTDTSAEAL

Take `COC(=O)[C@H](Cc1ccc(F)cc1)NC(=O)c1nn(C)c2c1CCCC/C2=C\c1cccc(F)c1` [Cpd 241, (8E)-(2S)-2-{[8-(3-fluoro-benzylidene)-1-methyl-1,4,5,6,7,8-hexahydro-cycloheptapyrazole-3-carbonyl]-amino}-3-(4-fluoro-phenyl)-propionic acid methyl ester]: the negative logarithm of the EC50 (pEC50) at CB1 receptor [1] was 5.55; on CB2 receptor [4] it was 7.74. In addition, the pIC50 was 6.70 at CB1 receptor [2] and 7.00 on CB2 receptor [3]. Moreover, the inhibition at 0.2 µM on CB1 receptor [2] worked out at 33%; on CB2 receptor [3] it was 62%.
In the case of `O=C(N[C@@H](CO)c1ccccc1)c1n[nH]c2c1CCCC/C2=C\c1cccc(Cl)c1` [Cpd 239, (8E)-8-(3-chloro-benzylidene)-1,4,5,6,7,8-hexahydro-cycloheptapyrazole-3-carboxylic acid [(1R)-2-hydroxy-1-phenyl-ethyl]-amide], the results for the pEC50 at CB1 receptor [1] and on CB2 receptor [4] were 7.70 and 9.22, respectively. Besides, the values for the negative logarithm of the IC50 (pIC50) at CB1 receptor [2] and on CB2 receptor [3] were 7.52 and 7.70, respectively. Further, the inhibition at 0.2 µM is 80% on CB1 receptor [2] and 91% at CB2 receptor [3].
Take `COC(=O)[C@H](Cc1ccc(F)cc1)NC(=O)c1n[nH]c2c1CCCC/C2=C\c1cccc(Cl)c1` [Cpd 240, (8E)-(2S)-2-{[8-(3-chloro-benzylidene)-1,4,5,6,7,8-hexahydro-cycloheptapyrazole-3-carbonyl]-amino}-3-(4-fluoro-phenyl)-propionic acid methyl ester]: the negative logarithm of the EC50 (pEC50) on CB1 receptor [1] was 5.80; at CB2 receptor [4] it was 7.89. The pIC50 on CB1 receptor [2] is 6.70; at CB2 receptor [3], 7.40. The inhibition at 0.2 µM came to 35% on CB1 receptor [2] and 78% at CB2 receptor [3].
Turning to `Cn1nc(C(=O)N[C@@H](CO)c2ccccc2)c2c1/C(=C/c1cccc(F)c1)CCCC2` [Cpd 242, (8E)-8-(3-fluoro-benzylidene)-1-methyl-1,4,5,6,7,8-hexahydro-cycloheptapyrazole-3-carboxylic acid [(1R)-2-hydroxy-1-phenyl-ethyl]-amide], the figures for the pEC50 at CB1 receptor [1] and at CB2 receptor [4] were 7.52 and 7.96, respectively. In addition, the pIC50 is 7.70 on CB1 receptor [2] and 7.00 on CB2 receptor [3]. The results for the inhibition at 0.2 µM at CB1 receptor [2] and on CB2 receptor [3] were 80% and 50%, respectively.
As for `COC(=O)[C@@H](Cc1ccc(F)cc1)NC(=O)c1n[nH]c2c1CCCC/C2=C\c1ccc(Cl)cc1` [Cpd 247, (8E)-(2R)-2-{[8-(4-chloro-benzylidene)-1,4,5,6,7,8-hexahydro-cycloheptapyrazole-3-carbonyl]-amino}-3-(4-fluoro-phenyl)-propionic acid methyl ester], the results for the pEC50 at CB1 receptor [1] and on CB2 receptor [4] were 8.10 and 8.40, respectively. The pIC50 is 8.70 at CB1 receptor [2] and 9.00 at CB2 receptor [3]. In addition, the values for the inhibition at 0.2 µM at CB1 receptor [2] and at CB2 receptor [3] were 91% and 96%, respectively.
Consider `Cn1nc(C(=O)N[C@H](CO)Cc2ccc(O)cc2)c2c1/C(=C/c1cccc(F)c1)CCCC2` [Cpd 244, (8E)-(2S)-8-(3-fluoro-benzylidene)-1-methyl-1,4,5,6,7,8-hexahydro-cycloheptapyrazole-3-carboxylic acid [1-hydroxymethyl-2-(4-hydroxy-phenyl)-ethyl]-amide], for which the values for the negative-log EC50 (pEC50) on CB1 receptor [1] and on CB2 receptor [4] were 6.22 and 8.30, respectively. The negative logarithm of the IC50 (pIC50) is 7.00 on CB1 receptor [2] and 7.70 on CB2 receptor [3]. Further, the inhibition at 0.2 µM at CB1 receptor [2] amounted to 68%; on CB2 receptor [3], 78%.
`O=C(N[C@@H](CO)c1ccccc1)c1n[nH]c2c1CCCC/C2=C\c1ccc(Cl)cc1` [Cpd 234, (8E)-8-(4-chloro-benzylidene)-1,4,5,6,7,8-hexahydro-cycloheptapyrazole-3-carboxylic acid [(1R)-2-hydroxy-1-phenyl-ethyl]-amide]: the figures for the pEC50 on CB1 receptor [1] and on CB2 receptor [4] were 8.10 and 8.30, respectively. Also, the pIC50 on CB1 receptor [2] is 7.70; at CB2 receptor [3], 7.22. For the same molecule, the inhibition at 0.2 µM on CB1 receptor [2] was 87%; at CB2 receptor [3] it was 93%.
As to `COC(=O)[C@H](Cc1ccc(F)cc1)NC(=O)c1n[nH]c2c1CCCC/C2=C\c1ccc(Cl)cc1` [Cpd 238, (8E)-(2S)-2-{[8-(4-chloro-benzylidene)-1,4,5,6,7,8-hexahydro-cycloheptapyrazole-3-carbonyl]-amino}-3-(4-fluoro-phenyl)-propionic acid methyl ester], the pEC50 was 6.82 on CB1 receptor [1] and 9.00 at CB2 receptor [4]. The pIC50 on CB1 receptor [2] was 7.52; on CB2 receptor [3], 8.00. Besides, the inhibition at 0.2 µM on CB1 receptor [2] came to 85%; on CB2 receptor [3] it was 93%.
Take `COC(=O)[C@@H](Cc1ccc(F)cc1)NC(=O)c1n[nH]c2c1CCCC/C2=C\c1cccc(Cl)c1` [Cpd 245, (8E)-(2R)-2-{[8-(3-chloro-benzylidene)-1,4,5,6,7,8-hexahydro-cycloheptapyrazole-3-carbonyl]-amino}-3-(4-fluoro-phenyl)-propionic acid methyl ester]: the negative logarithm of the EC50 (pEC50) on CB1 receptor [1] is 7.10; at CB2 receptor [4], 9.00. Also, the negative logarithm of the IC50 (pIC50) is 8.22 at CB1 receptor [2] and 8.70 at CB2 receptor [3]. For the same molecule, the inhibition at 0.2 µM on CB1 receptor [2] turned out to be 68%; on CB2 receptor [3] it was 93%.
